# Measured values from patent publication US9192656B2, “Methods and compositions for the treatment of cancer” (QUINTESSENCE BIOSCIENCES, INC., priority 2006, dated 2015).
# Key:
# [1] = tested on: human prostate cancer cell line (DU145); assay: In vivo inhibition of tumor growth, DU145 xenograft; parameters: species or system human tumor cells in nude mice; conditions: for Starting volume: at start
# Description: Cells from a non-small cell lung cancer cell line (A549) were grown in nine T175 flasks in F12K media and 10% fetal calf serum until the cells were confluent. 4.5×10^6 cells (in 100 microliters) were injected into the right rear flank of 4-5 week old male homozygous (nu/nu) nude mice (Harlan, Madison Wis.). Tumors were allowed to grow to an average size of ≧75 mm^3 before treatments were initiated. Animals of each tumor type, with the properly sized tumors, were divided into treatment groups, including one set of animals treated weekly with vehicle (phosphate buffered saline, PBS). The vehicle and the test agents were all administered by intraperitoneal injection. Each animal was weighed twice a week during treatment. The tumors were measured twice weekly using calipers. Tumor volume (mm^3) was determined by using the formula for an ellipsoid sphere: […]
# The percent tumor growth inhibition (% TGI) is calculated by: […]
# This xenograft model was set up as in the previous example except that a human prostate cancer cell line (DU145) was used. The efficacy of wild type human RNase 1 is shown relative to docetaxel. The RNase 1 was administered at 75 mg per kg of body weight of the animal (75 mg/kg 1×wk), while the docetaxel was used at 8 mg/kg once a week. The value of n represents the number of animals in the specific treatment arm of the experiment.
# (§1) The xenograft model of this example was set up as in the previous example except that a human prostate cancer cell line (DU145) was used. The efficacy of wild type human RNase 1 is shown. The RNase 1 was administered at 75 mg per kg of body weight of the animal once per week (75 mg/kg 1×wk). The value of n represents the number of animals in the specific treatment arm of the experiment.
# as §1, with “example.” for “example except that a human prostate cancer cell line (DU145) was used.”, “three different doses: (1) 15” for “75”, “(15” for “(75”, “1×wk), (2) 75 mg/kg 1×wk, or (3) 300 mg/kg 1×wk.” for “1×wk).”
# [2] = tested on: tumor; conditions: previous experiments, Cancer Res., 64:4870 [2004]; cited from earlier work
# [3] = Example 4, Table 8, RNase 1 75 mg/kg 1×wk, docetaxel 8 mg/kg once a week
# [4] = Example 8, Table 12, 75 mg/kg 1×wk
# [5] = Example 9, Table 13, set up as in the previous example, 15 mg/kg 1×wk
# [6] = Example 9, Table 13, set up as in the previous example, 75 mg/kg 1×wk
# [7] = Example 9, Table 13, set up as in the previous example, 300 mg/kg 1×wk
substance,measurement,setting,value
"Wild type human RNase 1: wild type human ribonuclease 1 (human pancreatic RNase), SEQ ID NO:1",% TGI,[1]; [3],80%
same,(Final − start),[1]; [3],478 mm^3
same,(Final − start)/Control,[1]; [3],0.20
same,Final volume,[1]; [3],539 mm^3
same,Starting volume,[1]; [3],61 mm^3
same,% TGI,[1]; [4],77%
same,(Final − start),[1]; [4],607 mm^3
same,(Final − start)/Control,[1]; [4],0.23
same,Final volume,[1]; [4],669 mm^3
same,Starting volume,[1]; [4],62 mm^3
same,% TGI,[1]; [5],0%
same,(Final − start),[1]; [5],1136 mm^3
same,(Final − start)/Control,[1]; [5],1
same,Final volume,[1]; [5],1246 mm^3
same,Starting volume,[1]; [5],110 mm^3
same,% TGI,[1]; [6],61%
same,(Final − start),[1]; [6],445 mm^3
same,(Final − start)/Control,[1]; [6],0.39
same,Final volume,[1]; [6],559 mm^3
same,Starting volume,[1]; [6],114 mm^3
same,% TGI,[1]; [7],43%
same,(Final − start),[1]; [7],652 mm^3
same,(Final − start)/Control,[1]; [7],0.57
same,Final volume,[1]; [7],766 mm^3
same,Starting volume,[1]; [7],114 mm^3
same,reduction in tumor volume,[2],did not demonstrate a reduction in tumor volume
